The source of these data is EP1891955A1, “Use of 1,2,3-substituted indolizine derivatives, inhibitors of FGFs, for the preparation of a medicament intended for the treatment of degenerative joint diseases” (Sanofi-Aventis, priority 2006, dated 2008).

Marks after values point to notes of the source that are not given here.

The test system of the series is STR/1N mice. Kind of series: Knee joint damage in STR/1N mice developing osteoarthritis spontaneously (semi-quantitative histopathological score). Particulars: male STR/1N mice, 6-week treatment. Type of series: in vivo. Here is the method: The effect of an FGF-antaqonist on the degree of knee joint damage in STR/1N mice, which develop osteoarthritis spontaneously
The experiment was performed according to the regulations of the German Animal Protection Law. Fifty 9-week old male STR/1N mice (strain bred and maintained at sanofi-aventis, Dept. of Laboratory Animal Safety and Welfare, D-65926 Frankfurt/Main, Germany) were randomized to 2 experimental groups (n=25/group). The animals were housed individually in standard mouse cages (room temperature 20 - 22°C; relative humidity 55-75%; 12 hours light/dark cycle) with free access to the powdered mouse standard food (Sniff R/M-H, Soest, Germany) and tap water. To achieve sustained drug exposure, the sodium 2-amino-5-[(1-methoxy-2-methylindolizin-3-yl)carbonyl]benzoic acid monohydrate was blended with the standard food at concentrations of 300 ppm (0.3 g/kg food) and administered to one experimental group of 25 mice ad libitum. The control group of 25 mice received unsupplemented standard food. Following the 6-week treatment period the animals were sacrificed by CO2 inhalation, their left knee joints were removed and decalcified for 3 days with formic acid (decalcifier, Shandon, Frankfurt/M., Germany), fixed in formalin and embedded in paraffin. Four sequential coronal sections of the complete knee joints (7 µm, 0.1 mm apart), stained with Hematoxyline-Eosine and Saffranin-O were evaluated by a blinded observer for the degree of histopathological joint alterations by using a semi-quantitative score as described in Table 1. Table 1: Semiquantitative Histopathological Score of Osteoarthritic Joint Damage in STR/1N Mice
The osteoarthritis joint damage was assessed by a semi-quantitative histopathological score. The STR/1N mice developed moderate osteoarthritis in the medial tibial plateau of the knee joint.

Take `COc1c(C)c(C(=O)c2ccc(N)c(C(=O)O)c2)n2ccccc12.O.[Na]` [sodium 2-amino-5-[(1-methoxy-2-methylindolizin-3-yl)carbonyl]benzoic acid monohydrate]: the “Histopathological Score Mean (SEM)” value (300 ppm (0.3 g/kg food) in food ad libitum, left knee joint, maximal total joint score = 128, p = 0.0118 Mann Whitney Test vs control 34.3 (3.8)) is 23.5 (3.7)*. Under “300 ppm in food”, the tolerability entry is “well tolerated”. Besides, the “reduction of the degree of histopathological joint damage” value (300 ppm in food, versus non-treated control) was found to be 32%.
